“And” between values parts separate entries of the source, which are not always exact repeats. Identical values can stand only once. Like-named read-outs stand apart in the source and are kept apart here.
What was measured:
[1] = system: cells from the thymus of normal BALB/c mice; experiment: comitogen-induced thymocyte proliferation procedure (LAF); conditions: for LAF ratio: ratio compared with rapamycin, greater than 1 = inhibited thymocyte proliferation to a greater extent than rapamycin; for IC50: read-out: LAF IC50
Procedure: Cells are cultured with and without various concentrations of rapamycin, cyclosporin A, or test compound. Cells are harvested and incorporated radio-activity is determined. Inhibition of lymphoproliferation is assessed as percent change in counts per minute from nondrug treated controls. For each compound evaluated, rapamycin was also evaluated for the purpose of comparison. An IC50 was obtained for each test compound as well as for rapamycin. […] The results obtained are provided as an IC50 and as the percent inhibition of T-cell proliferation at 0.1 μM. […] A positive ratio indicates immunosuppressive activity.

[2] = system: pinch skin graft from male BALB/c donors transplanted to male C3H(H-2K) recipients; experiment: pinch skin graft survival test procedure; type: in vivo; conditions: mean graft survival time ± S.D., dose of 4 mg/kg
Procedure: Representative compounds of this invention were also evaluated in an in vivo test procedure designed to determine the survival time of pinch skin graft from male BALB/c donors transplanted to male C3H(H-2K) recipients. The method is adapted from Billingham R. E. and Medawar P. B., J. Exp. Biol. 28:385-402, (1951). Briefly, as pinch skin graft from the donor was grafted on the dorsum of the recipient as a allograft, and an isograft was used as control in the same region. The recipients were treated with either varying concentrations of test compounds intraperitoneally or orally. Rapamycin was used as a test control. Untreated recipients serve as rejection control. The graft was monitored daily and observations were recorded until the graft became dry and formed a blackened scab. This was considered as the rejection day. The mean graft survival time (number of days±S.D.) of the drug treatment group was compared with the control group. […] Results are expressed as the mean survival time in days. Untreated (control) pinch skin grafts are usually rejected within 6-7 days. Compounds were tested using a dose of 4 mg/kg.

[3] = system: adjuvant arthritis (uninjected hind paw, T-cell mediated inflammation); experiment: adjuvant arthritis standard pharmacological test procedure; type: in vivo, male inbread Wistar Lewis rats; conditions: uninjected paw at day 16 versus control; oral dose of 5 mg/kg
Procedure: The adjuvant arthritis standard pharmacological test procedure measures the ability of test compounds to prevent immune mediated inflammation and inhibit or treat rheumatoid arthritis. The following briefly describes the test procedure used. A group of rats (male inbread Wistar Lewis rats) are pre-treated with the compound to be tested (1 h prior to antigen) and then injected with Freud's Complete Adjuvant (FCA) in the right hind paw to induce arthritis. The rats are then orally dosed on a Monday, Wednesday, Friday schedule from day 0-14 for […]. Both hind paws are measured on days 16, 23, and 30. The difference in paw volume (mL) from day 16 to day 0 is determined and a percent change from control is obtained. […] The right hind paw inflammation, on the other hand, is caused by non-specific inflammation. Compounds were tested at a dose of 5 mg/kg.

[4] = thymocytes cultured 72 hours with PHA and IL-1, tritiated thymidine incorporation

Compound	LAF ratio [1]	IC50 [1, 4] [nM]	also measured
COC1CC2CCC(C)C(O)(O2)C(=O)C(=O)N2CCCCC2C(=O)OC(C(C)CC2CCC(OC(=O)C3COC(C)(C)O3)C(OC)C2)CC(=O)C(C)C=C(C)C(OC(=O)C2COC(C)(C)O2)C(OC)C(=O)C(C)CC(C)C=CC=CC=C1C (centres unmarked) [Example 6, Rapamycin 31,42-diester with 2,2-dimethyl[1,3]dioxalane-4-carboxylic acid]	0.5	1.3	
COC1CC2CCC(C)C(O)(O2)C(=O)C(=O)N2CCCCC2C(=O)OC(C(C)CC2CCC(OC(=O)C3COC(C)(C)OC3)C(OC)C2)CC(=O)C(C)C=C(C)C(O)C(OC)C(=O)C(C)CC(C)C=CC=CC=C1C (centres unmarked) [Example 8]	0.45	0.76	
Rapamycin 42-ester with 2,3-dihydroxypropionic acid [Example 7]	0.40	1.4	
CO[C@H]1C[C@@H]2CC[C@@H](C)[C@@](O)(O2)C(=O)C(=O)N2CCCC[C@H]2C(=O)O[C@H]([C@H](C)C[C@@H]2CC[C@@H](OC(=O)C(C)(C)CO)[C@H](OC)C2)CC(=O)[C@H](C)/C=C(\C)[C@@H](O)[C@@H](OC)C(=O)[C@H](C)C[C@H](C)/C=C/C=C/C=C/1C [Example 4, Rapamycin 42-ester with 3-hydroxy-2,2-dimethylpropionic acid]	1.25	0.8	Skin graft survival time [2]: 10.7 ± 0.5 days
CO[C@H]1CC2CC[C@@H](C)[C@@](O)(O2)C(=O)C(=O)N2CCCC[C@H]2C(=O)O[C@H]([C@H](C)C[C@@H]2CC[C@@H](OC(=O)C(C)(CO)CO)[C@H](OC)C2)CC(=O)[C@H](C)/C=C(\C)[C@@H](O)[C@@H](OC)C(=O)[C@H](C)C[C@H](C)/C=C/C=C/C=C/1C [Example 11, Rapamycin 42-ester with 2,2-bis-(hydroxymethyl)propionic acid]			Skin graft survival time ([2]; 4 mg/kg): 11.4 ± 1.5 days and 12.0 ± 1.1 days; Percent change in adjuvant arthritis versus control [3]: < 88%
COC1CC2CCC(C)C(O)(O2)C(=O)C(=O)N2CCCCC2C(=O)OC(C(C)CC2CCC(OC(=O)C(C)(C)COC3CCCCO3)C(OC)C2)CC(=O)C(C)C=C(C)C(O)C(OC)C(=O)C(C)CC(C)C=CC=CC=C1C (centres unmarked) [Example 3, Rapamycin 42-ester with 2,2-dimethyl-3-(tetrahydropyran-2-yloxy)propionic acid]	0.34	7.1	
Rapamycin 42-ester with 2,2-dimethyl-5-(2-trimethylsilanylethoxymethyl)[1,3]dioxane-5-carboxylic acid [Example 12]	0.05	7.2	
CO[C@H]1C[C@@H]2CC[C@@H](C)[C@@](O)(O2)C(=O)C(=O)N2CCCC[C@H]2C(=O)O[C@H]([C@H](C)C[C@@H]2CC[C@@H](O)[C@H](OC)C2)CC(=O)[C@H](C)/C=C(\C)[C@@H](O)[C@@H](OC)C(=O)[C@H](C)C[C@H](C)/C=C/C=C/C=C/1C [rapamycin, Rapamycin]			IC50 ([1]; Mus musculus, Thymocyte, 72 h): 0.6 to 1.5 nM
COC1CC2CCC(C)C(O)(O2)C(=O)C(=O)N2CCCCC2C(=O)OC(C(C)CC2CCC(OC(=O)C3(C)COC4(CCCCC4)OC3)C(OC)C2)CC(=O)C(C)C=C(C)C(OC(=O)C2(C)COC3(CCCCC3)OC2)C(OC)C(=O)C(C)CC(C)C=CC=CC=C1C (centres unmarked) [Example 14, Rapamycin 31.42-diester with 3-methyl-1.5-dioxa-spiro[5.5]undecane 3-carboxylic acid]			percent inhibition of T-cell proliferation ([1]; at 0.1 μM): 43%
COC1CC2CCC(C)C(O)(O2)C(=O)C(=O)N2CCCCC2C(=O)OC(C(C)CC2CCC(OC(=O)C(CO)CO)C(OC)C2)CC(=O)C(C)C=C(C)C(O)C(OC)C(=O)C(C)CC(C)C=CC=CC=C1C (centres unmarked) [Example 9, Rapamycin 42-ester with 3-hydroxy-2-hydroxymethylpropionic acid]	0.57	0.84	
CO[C@H]1C[C@@H]2CC[C@@H](C)[C@@](O)(O2)C(=O)C(=O)N2CCCC[C@H]2C(=O)O[C@H]([C@H](C)C[C@@H]2CC[C@@H](OC(=O)C3(C)COC(C)(C)OC3)[C@H](OC)C2)CC(=O)[C@H](C)/C=C(\C)[C@@H](O)[C@@H](OC)C(=O)[C@H](C)C[C@H](C)/C=C/C=C/C=C/1C [Example 10]	0.41	4.9	Skin graft survival time [2]: 11.0 ± 1.3 days
COC1CC2CCC(C)C(O)(O2)C(=O)C(=O)N2CCCCC2C(=O)OC(C(C)CC2CCC(OC(=O)C3(C)COC4(CCCCC4)OC3)C(OC)C2)CC(=O)C(C)C=C(C)C(O)C(OC)C(=O)C(C)CC(C)C=CC=CC=C1C (centres unmarked) [Example 13, Rapamycin 42-ester with 3-methyl-1,5-dioxa-spiro[5.5]undecane 3-carboxylic acid]	2.00	0.6	
CO[C@H]1C[C@@H]2CC[C@@H](C)[C@@](O)(O2)C(=O)C(=O)N2CCCC[C@H]2C(=O)O[C@H]([C@H](C)C[C@@H]2CC[C@@H](OC(=O)CO)[C@H](OC)C2)CC(=O)[C@H](C)/C=C(\C)[C@@H](O)[C@@H](OC)C(=O)[C@H](C)C[C@H](C)/C=C/C=C/C=C/1C [Example 2, Rapamycin 42-ester with hydroxyacetic acid]	0.83	1.8	Percent change in adjuvant arthritis versus control [3]: −88%
COC1CC2CCC(C)C(O)(O2)C(=O)C(=O)N2CCCCC2C(=O)OC(C(C)CC2CCC(OC(=O)C3COC(C)(C)O3)C(OC)C2)CC(=O)C(C)C=C(C)C(O)C(OC)C(=O)C(C)CC(C)C=CC=CC=C1C (centres unmarked) [Example 5, Rapamycin 42-ester with 2,2-dimethyl[1,3]dioxalane-4-carboxylic acid]	0.74	1.2	

Source: USRE44768E1, “Rapamycin hydroxyesters” (Wyeth LLC, priority 1994, dated 2014)
